Key:
[1] = biological target: T1, CYP1A2 (Homo sapiens, UniProt P05177); assay: biochemical
T1 sequence (P05177 1-516): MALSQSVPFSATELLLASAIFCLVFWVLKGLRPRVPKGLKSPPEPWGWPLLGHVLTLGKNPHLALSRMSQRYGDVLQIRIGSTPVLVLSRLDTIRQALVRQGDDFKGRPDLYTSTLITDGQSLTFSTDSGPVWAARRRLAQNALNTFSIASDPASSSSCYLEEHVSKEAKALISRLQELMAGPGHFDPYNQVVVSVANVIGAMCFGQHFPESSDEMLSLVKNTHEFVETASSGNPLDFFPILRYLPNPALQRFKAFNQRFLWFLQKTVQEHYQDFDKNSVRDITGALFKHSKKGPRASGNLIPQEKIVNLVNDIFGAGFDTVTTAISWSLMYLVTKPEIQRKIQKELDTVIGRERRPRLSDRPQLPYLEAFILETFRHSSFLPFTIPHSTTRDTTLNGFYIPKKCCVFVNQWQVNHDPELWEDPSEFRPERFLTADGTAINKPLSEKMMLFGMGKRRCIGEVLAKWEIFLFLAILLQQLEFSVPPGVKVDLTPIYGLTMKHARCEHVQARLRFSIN

[2] = biological target: CYP3A4 (Homo sapiens, UniProt P08684); assay: biochemical
Sequence of CYP3A4 (P08684 whole entry): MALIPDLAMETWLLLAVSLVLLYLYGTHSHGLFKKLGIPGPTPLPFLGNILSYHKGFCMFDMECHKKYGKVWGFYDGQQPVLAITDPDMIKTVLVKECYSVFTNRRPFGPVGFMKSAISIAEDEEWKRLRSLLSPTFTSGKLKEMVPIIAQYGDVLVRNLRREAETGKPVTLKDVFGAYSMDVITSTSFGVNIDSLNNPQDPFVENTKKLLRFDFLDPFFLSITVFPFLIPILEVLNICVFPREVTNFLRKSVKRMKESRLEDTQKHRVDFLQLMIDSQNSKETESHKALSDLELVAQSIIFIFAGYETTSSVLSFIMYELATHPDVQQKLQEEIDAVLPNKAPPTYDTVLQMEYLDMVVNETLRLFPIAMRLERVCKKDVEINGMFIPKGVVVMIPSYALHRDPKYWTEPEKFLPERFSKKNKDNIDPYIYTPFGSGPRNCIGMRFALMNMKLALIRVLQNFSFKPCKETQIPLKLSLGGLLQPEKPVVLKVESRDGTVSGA

[3] = biological target: CYP2D6 (Homo sapiens, UniProt P10635); assay: biochemical
Sequence of CYP2D6 (P10635 whole entry): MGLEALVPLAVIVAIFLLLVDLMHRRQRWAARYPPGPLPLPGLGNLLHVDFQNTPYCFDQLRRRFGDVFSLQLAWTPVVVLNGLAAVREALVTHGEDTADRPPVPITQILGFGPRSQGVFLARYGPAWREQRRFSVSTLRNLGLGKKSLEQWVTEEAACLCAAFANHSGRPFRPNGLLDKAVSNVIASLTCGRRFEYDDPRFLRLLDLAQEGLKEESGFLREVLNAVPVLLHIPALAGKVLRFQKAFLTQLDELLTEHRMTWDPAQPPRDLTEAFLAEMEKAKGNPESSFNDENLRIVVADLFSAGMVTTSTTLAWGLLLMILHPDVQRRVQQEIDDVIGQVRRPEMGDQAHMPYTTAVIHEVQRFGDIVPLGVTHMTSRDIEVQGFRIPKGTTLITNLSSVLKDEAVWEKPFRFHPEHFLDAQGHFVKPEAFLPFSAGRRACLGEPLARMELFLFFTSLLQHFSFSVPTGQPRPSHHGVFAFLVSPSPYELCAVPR

[4] = biological target: CYP2C9 (Homo sapiens, UniProt P11712); assay: biochemical
Sequence of CYP2C9 (P11712 whole entry): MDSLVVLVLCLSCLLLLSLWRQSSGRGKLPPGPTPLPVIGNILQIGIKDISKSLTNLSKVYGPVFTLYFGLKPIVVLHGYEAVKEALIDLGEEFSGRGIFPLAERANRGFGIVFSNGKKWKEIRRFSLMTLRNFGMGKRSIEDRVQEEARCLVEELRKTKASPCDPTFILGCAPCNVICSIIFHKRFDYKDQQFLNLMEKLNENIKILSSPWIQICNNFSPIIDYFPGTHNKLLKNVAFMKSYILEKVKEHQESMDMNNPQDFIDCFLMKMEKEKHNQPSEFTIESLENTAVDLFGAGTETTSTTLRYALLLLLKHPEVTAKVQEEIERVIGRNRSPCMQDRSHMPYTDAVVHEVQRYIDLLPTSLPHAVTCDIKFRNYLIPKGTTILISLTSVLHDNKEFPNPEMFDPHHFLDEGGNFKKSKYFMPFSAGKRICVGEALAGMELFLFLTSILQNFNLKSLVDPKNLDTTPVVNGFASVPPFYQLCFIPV

[5] = biological target: human opioid receptor-like (ORL-1) (Homo sapiens, UniProt P41146); assay: ORL-1 receptor [35S]GTPγS functional binding assay; type: biochemical
Sequence of human opioid receptor-like (ORL-1) (P41146 whole entry): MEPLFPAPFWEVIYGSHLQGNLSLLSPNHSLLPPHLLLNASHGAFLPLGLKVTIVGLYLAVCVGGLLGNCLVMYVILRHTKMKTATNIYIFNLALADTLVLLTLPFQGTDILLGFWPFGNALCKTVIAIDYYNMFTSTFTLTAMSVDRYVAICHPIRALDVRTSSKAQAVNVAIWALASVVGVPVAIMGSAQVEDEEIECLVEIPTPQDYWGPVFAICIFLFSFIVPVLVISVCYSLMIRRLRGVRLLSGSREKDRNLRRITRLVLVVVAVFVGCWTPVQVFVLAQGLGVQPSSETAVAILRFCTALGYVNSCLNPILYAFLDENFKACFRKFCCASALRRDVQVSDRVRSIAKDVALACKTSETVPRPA

[6] = biological target: CYP2C19 (Homo sapiens, UniProt P33261); assay: biochemical
Sequence of CYP2C19 (P33261 whole entry): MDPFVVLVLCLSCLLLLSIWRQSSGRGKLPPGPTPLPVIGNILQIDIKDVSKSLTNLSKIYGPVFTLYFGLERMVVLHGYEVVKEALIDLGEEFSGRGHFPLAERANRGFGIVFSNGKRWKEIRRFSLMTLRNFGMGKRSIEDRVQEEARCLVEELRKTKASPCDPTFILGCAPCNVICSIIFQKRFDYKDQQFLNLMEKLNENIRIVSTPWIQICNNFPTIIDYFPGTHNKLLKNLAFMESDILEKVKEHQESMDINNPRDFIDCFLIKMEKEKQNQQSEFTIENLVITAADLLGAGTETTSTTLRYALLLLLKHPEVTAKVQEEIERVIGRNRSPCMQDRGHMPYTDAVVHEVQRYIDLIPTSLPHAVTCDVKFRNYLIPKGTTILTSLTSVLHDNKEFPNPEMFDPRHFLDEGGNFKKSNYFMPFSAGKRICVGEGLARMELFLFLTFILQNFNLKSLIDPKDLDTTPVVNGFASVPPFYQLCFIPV

[7] = biological target: human μ-opioid receptors (Homo sapiens, UniProt P35372); assay: In vitro mu-opioid receptor binding assay ([3H]-diprenorphine displacement); details: read-out: Mu opioid receptor Ki [Average ± Std Deviation]
Sequence of human μ-opioid receptors (P35372 whole entry): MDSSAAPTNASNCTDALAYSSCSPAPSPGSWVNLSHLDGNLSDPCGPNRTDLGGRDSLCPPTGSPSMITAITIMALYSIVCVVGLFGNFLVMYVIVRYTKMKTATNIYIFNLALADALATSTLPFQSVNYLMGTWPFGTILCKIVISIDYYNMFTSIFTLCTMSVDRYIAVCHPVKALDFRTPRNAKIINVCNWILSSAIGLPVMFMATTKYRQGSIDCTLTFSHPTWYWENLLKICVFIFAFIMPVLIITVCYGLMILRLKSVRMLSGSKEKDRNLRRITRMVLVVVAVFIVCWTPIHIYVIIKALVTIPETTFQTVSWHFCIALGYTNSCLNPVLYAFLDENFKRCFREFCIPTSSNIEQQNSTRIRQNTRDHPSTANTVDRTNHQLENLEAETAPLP

[8] = biological target: delta opioid receptor (Homo sapiens, UniProt P41143); assay: In vitro delta-opioid receptor binding assay ([3H]-Naltrindole displacement)
Sequence of delta opioid receptor (P41143 whole entry): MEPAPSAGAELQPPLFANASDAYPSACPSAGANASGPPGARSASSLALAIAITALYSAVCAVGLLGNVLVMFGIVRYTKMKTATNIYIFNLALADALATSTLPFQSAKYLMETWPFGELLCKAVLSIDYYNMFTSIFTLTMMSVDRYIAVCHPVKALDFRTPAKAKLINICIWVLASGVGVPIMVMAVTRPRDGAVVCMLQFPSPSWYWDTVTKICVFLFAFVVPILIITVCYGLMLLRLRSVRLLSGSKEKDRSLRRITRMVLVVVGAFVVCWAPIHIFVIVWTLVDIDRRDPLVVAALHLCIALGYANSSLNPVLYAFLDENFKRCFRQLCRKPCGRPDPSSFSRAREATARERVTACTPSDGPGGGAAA

[9] = biological target: human kappa opioid receptor (Homo sapiens, UniProt P41145); assay: In vitro kappa-opioid receptor binding assay ([3H]-U69,593 displacement)
Sequence of human kappa opioid receptor (P41145 whole entry): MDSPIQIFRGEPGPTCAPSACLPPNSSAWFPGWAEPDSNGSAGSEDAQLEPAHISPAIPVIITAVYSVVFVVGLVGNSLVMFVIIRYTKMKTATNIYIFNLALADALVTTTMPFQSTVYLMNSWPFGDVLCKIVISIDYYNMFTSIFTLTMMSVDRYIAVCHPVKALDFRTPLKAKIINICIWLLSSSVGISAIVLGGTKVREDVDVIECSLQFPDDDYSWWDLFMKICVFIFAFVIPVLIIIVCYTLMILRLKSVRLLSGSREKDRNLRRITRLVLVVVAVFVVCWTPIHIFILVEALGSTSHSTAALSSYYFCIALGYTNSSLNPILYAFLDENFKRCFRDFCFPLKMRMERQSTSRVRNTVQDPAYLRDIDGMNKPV

SMILES	IC50 [1] [µM]	IC50 [2] [µM]	IC50 [3] [µM]	IC50 [4] [µM]	EC50 [5] [µM]	IC50 [6] [µM]	Ki [7] [µM]	Ki [8] [µM]	Ki [9] [µM]
CO/N=C(\CCC(=O)O)c1nc2ccccc2n([C@H]2C[C@H]3CCC[C@@H](C2)N3C2CCCCCCCC2)c1=O [Compound 10, 4-[4-((1R,3R,7S)-9-cyclononyl-9-aza-bicyclo[3.3.1]non-3-yl)-3-oxo-3,4-dihydro-quinoxalin-2-yl]-4-methoxyimino-butyric acid]	> 20	> 20	> 20	> 20	0.104 ± 0.012	> 20			
CON=C(CCC(=O)O)c1nc2ccccc2n([C@H]2C[C@H]3CC[C@@H](C2)N3C2CC3CCCC(C3)C2)c1=O (stereo partly drawn) [Compound 14, 4-(4-((1R,3R)-8-(bicyclo[3.3.1]nonan-3-yl)-8-azabicyclo[3.2.1]octan-3-yl)-3-oxo-3,4-dihydroquinoxalin-2-yl)-4-(methoxyimino)butanoic acid]	> 20	> 20	> 20	> 20	0.15 ± 0.014	> 20	2.3 ± 0.153	> 20	2.76 ± 0.245
C/C(=N\OCC(=O)O)c1nc2ccccc2n([C@H]2C[C@H]3CCC[C@@H](C2)N3C2CCCCCCCCC2)c1=O [Compound 21]	> 20	> 20	> 20	> 20	0.239 ± 0.0254	> 20			
NC(=O)/C(=N\OCC(=O)O)c1nc2ccccc2n([C@H]2C[C@H]3CCC[C@@H](C2)N3C2CC3CCCC(C3)C2)c1=O (stereo partly shown) [Compound 40]	> 20	> 20	> 20	> 20	0.113 ± 0.031	> 20	2.71 ± 0.285	> 20	1.7 ± 0.278
CON=C(CCC(=O)O)c1nc2ccccc2n([C@H]2C[C@H]3COC[C@@H](C2)N3C2CC3CCCCC(C3)C2)c1=O (stereo partly shown) [Compound 48]	> 20	> 20	> 20	> 20	0.149 ± 0.029	> 20	15.6	> 20	> 20
NC(=O)CCC(=NOCC(=O)O)c1nc2ccccc2n([C@H]2C[C@H]3CCC[C@@H](C2)N3C2CC3CCCCC(C3)C2)c1=O (stereo partly shown) [Compound 59]	> 20	> 20	> 20	> 20		> 20			
NC(=O)CO/N=C(\C(=O)O)c1nc2ccccc2n([C@H]2C[C@H]3CC[C@@H](C2)N3C2CC3CCCCC(C3)C2)c1=O (stereo partly shown) [Compound 60]	> 20	> 20	> 20	> 20		> 20			
CC(C)(O/N=C(\C(=O)O)c1nc2ccccc2n([C@H]2C[C@H]3CC[C@@H](C2)N3C2CC3CCCCC(C3)C2)c1=O)C(N)=O (stereo partly shown) [Compound 61]	> 20	> 20	> 20	> 20		> 20			
CN(C)C(=O)CON=C(C(=O)O)c1nc2ccccc2n([C@H]2C[C@H]3CCC[C@@H](C2)N3C2CC3CCCC(C3)C2)c1=O (stereo partly shown) [Compound 63]	> 20	> 20	> 20	> 20		> 20			
CNC(=O)CON=C(C(=O)O)c1nc2ccccc2n([C@H]2C[C@H]3CCC[C@@H](C2)N3C2CC3CCCC(C3)C2)c1=O (stereo partly shown) [Compound 64]	> 20	> 20	> 20	> 20		> 20			
N#CC(=NOCC(=O)O)c1nc2ccccc2n([C@H]2C[C@H]3CCC[C@@H](C2)N3C2CC3CCCC(C3)C2)c1=O (stereo partly drawn) [Compound 65, 2-((((4-((1R,1′R,3r,3′R,5S,5′S)-[3,9′-bi(9′-azabicyclo[3.3.1]nonan)]-3′-yl)-3-oxo-3,4-dihydroquinoxalin-2-yl)(cyano)methylene)amino)oxy)acetic acid]	> 20	> 20	> 20	> 20		> 20			
NC(=O)CO/N=C(\C(N)=O)c1nc2ccccc2n([C@H]2C[C@H]3CCC[C@@H](C2)N3C2CC3CCCCC(C3)C2)c1=O (stereo partly shown) [Compound 66]	> 20	> 20	> 20	> 20		> 20			
CC(C)ON=C(CCC(=O)O)c1nc2ccccc2n([C@H]2C[C@H]3CC[C@@H](C2)N3C2CC3CCCCC(C3)C2)c1=O (stereo partly shown) [Compound 67]	> 20	> 20	> 20	> 20		> 20			

From patent publication US9040533B2, “Oxime-substituted-quinoxaline-type piperidine compounds as ORL-1 modulators” (priority 2012, dated 2015)
